Test results as given in ChEMBL document CHEMBL1141784, “Phaeochromycins A-E, anti-inflammatory polyketides isolated from the soil actinomycete Streptomyces phaeochromogenes LL-P018” (J Nat Prod, 2005).

Target: MAP kinase-activated protein kinase 2 (Homo sapiens, UniProt P49137)
Assay: Inhibition of human recombinant MK2 by ELISA

Sequence of MAP kinase-activated protein kinase 2 (P49137 whole entry): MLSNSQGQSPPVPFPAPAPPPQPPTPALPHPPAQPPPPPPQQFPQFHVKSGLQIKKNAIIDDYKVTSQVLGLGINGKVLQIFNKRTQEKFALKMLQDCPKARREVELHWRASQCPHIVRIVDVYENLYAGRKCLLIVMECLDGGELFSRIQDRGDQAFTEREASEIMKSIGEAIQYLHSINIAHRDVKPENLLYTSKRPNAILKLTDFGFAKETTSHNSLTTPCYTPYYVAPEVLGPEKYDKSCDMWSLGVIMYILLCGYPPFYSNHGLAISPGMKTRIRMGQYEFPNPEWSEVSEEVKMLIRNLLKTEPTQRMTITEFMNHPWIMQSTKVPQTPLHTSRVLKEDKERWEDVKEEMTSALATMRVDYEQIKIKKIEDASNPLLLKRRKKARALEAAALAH

IC50 [µM] | Structure (SMILES)
39 | CCCc1cc(O)c2c(O)cccc2c1-c1cc(O)cc(=O)o1 [PHAEOCHROMYCINS A]
130 | CCCc1cc(=O)c2c(Cc3cc(O)cc(=O)o3)cccc2o1 [PHAEOCHROMYCIN C]
